Experimental data reported in patent US6686350B1, “Cell adhesion inhibitors” (Biogen, Inc., priority 1996, dated 2004).

These molecules were tested against T1, VLA-4 (Homo sapiens, UniProt P05556+P13612) (assay: VLA-4 direct binding assay (VCAM-IgG alkaline phosphatase conjugate binding to Jurkat cells)). Conditions: Table 1, Structure-Activity; assay and unit inferred; read-out: Act.
T1 construct: endogenous in cells; host or cells: Jurkat cells
T1 sequence (P13612 34-1032): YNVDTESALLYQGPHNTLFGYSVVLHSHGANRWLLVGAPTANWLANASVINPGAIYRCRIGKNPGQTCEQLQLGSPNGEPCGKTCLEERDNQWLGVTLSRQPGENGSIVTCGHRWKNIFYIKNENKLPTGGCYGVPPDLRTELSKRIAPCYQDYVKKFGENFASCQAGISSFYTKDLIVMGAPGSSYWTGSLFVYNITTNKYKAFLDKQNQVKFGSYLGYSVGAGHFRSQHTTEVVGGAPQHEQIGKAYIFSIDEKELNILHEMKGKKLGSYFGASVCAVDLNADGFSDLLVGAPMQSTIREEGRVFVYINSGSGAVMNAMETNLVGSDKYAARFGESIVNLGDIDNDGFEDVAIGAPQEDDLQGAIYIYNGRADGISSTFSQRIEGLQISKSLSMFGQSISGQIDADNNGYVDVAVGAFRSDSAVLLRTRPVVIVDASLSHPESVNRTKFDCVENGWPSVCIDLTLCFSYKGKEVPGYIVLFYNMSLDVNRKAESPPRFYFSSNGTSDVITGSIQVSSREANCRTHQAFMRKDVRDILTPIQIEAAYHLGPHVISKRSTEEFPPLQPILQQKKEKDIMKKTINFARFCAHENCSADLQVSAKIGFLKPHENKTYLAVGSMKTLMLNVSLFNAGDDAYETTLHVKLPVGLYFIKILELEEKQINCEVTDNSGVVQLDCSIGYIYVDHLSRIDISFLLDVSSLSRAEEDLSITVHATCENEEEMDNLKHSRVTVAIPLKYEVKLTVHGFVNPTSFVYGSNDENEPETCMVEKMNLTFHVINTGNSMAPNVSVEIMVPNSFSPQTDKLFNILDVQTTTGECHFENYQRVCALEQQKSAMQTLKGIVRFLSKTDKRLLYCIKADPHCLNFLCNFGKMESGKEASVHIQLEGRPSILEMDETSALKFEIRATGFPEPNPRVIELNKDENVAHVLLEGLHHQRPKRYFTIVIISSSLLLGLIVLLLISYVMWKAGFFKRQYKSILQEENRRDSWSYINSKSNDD
T1 sequence (P05556 21-798): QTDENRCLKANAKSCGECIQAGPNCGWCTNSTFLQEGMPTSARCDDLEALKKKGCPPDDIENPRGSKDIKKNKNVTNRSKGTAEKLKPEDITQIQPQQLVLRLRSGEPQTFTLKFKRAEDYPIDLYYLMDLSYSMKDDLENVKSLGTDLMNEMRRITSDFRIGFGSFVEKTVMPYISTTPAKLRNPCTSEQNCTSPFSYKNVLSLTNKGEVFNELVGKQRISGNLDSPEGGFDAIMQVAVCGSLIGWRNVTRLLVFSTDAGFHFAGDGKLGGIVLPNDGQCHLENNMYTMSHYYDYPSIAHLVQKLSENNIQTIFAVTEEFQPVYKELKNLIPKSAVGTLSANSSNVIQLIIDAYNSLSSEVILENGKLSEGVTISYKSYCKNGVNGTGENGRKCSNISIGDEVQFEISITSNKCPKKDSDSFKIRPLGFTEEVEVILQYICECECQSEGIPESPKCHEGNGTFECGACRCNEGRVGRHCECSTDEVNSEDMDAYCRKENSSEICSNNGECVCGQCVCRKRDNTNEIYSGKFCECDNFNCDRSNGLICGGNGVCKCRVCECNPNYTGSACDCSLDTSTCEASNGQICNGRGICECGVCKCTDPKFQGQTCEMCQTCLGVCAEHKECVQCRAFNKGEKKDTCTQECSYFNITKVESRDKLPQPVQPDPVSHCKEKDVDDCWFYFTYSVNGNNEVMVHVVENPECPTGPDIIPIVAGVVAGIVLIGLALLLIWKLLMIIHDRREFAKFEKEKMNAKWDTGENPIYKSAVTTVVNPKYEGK
Text: A direct binding assay may also be employed to quantitate the inhibitory activity of the compounds of this invention. (“DBA”) In direct binding assays, for example, a VCAM-IgG fusion protein containing the first two immunoglobulin domains of VCAM (D1D2) attached above the hinge region of an IgG1 molecule (“VCAM 2D-IgG”), is conjugated to a marker enzyme, such as alkaline phosphatase (“AP”). The synthesis of this VCAM-IgG fusion is described in PCT publication WO 90/13300, the disclosure of which is herein incorporated by reference. The conjugation of that fusion to a marker enzyme can be achieved by cross-linking methods well-known in the art.
The VCAM-IgG enzyme conjugate is then placed in the wells of a multi-well filtration plate, such as that contained in the Millipore Multiscreen Assay System (Millipore Corp., Bedford, Mass.). Varying concentrations of the test inhibitory compound are then added to the wells followed by addition of VLA-4-expressing cells. The cells, compound and VCAM-IgG enzyme conjugate are mixed together and allowed to incubate at room temperature.
Following incubation, the wells are vacuum drained, leaving behind the cells and any bound VCAM. Quantitation of bound VCAM is determined by adding an appropriate calorimetric substrate for the enzyme conjugated to VCAM-IgG and determining the amount of reaction product. Decreased reaction product indicates increased binding inhibitory activity. The protocol is described more specifically below:
1. Block a 96 well Millipore Multiscreen Assay System filtration plate^1 with 200:l/well of blocking buffer (1×Phosphate Buffered Saline, 0.1%Tween 20, 1%BSA) for at least 1 hour at room temperature.
2. Drain the plate with the vacuum manifold, and wash with 200 μl/well of assay buffer (Tris Buffered Saline, 0.1% BSA, 2 mM glucose, 10 mM HEPES, pH 7.5) draining the plate in between. Repeat twice. Then blot the plate bottom on paper to remove excess buffer.
3. Prepare a 4 μg/ml VCAMIg-AP solution (Alkaline phosphatase coupled to VCAMIg) in assay buffer and filter with a 0.2:low protein binding syringe filter (Gelman Sciences #4454). From this stock, prepare a 0.4 μg/ml working solution of VCAMIg-AP in assay buffer. Add 25:l of 0.4 μg/ml VCAMIg-AP to every well.
5. Prepare dilutions of compounds to be tested in assay buffer. Concentrations should be 4× the desired final concentration and run in triplicate. Add 25 μl of the compound dilutions to designated wells.
7. Jurkat cells are centrifuged to remove cell culture media and washed once in assay buffer. Resuspend the washed Jurkat cells to a concentration of 8×10^6/ml in assay buffer containing 2 mM MnCl2. Pipeting the mixture up and down to ensure a uniform cell suspension. Add 50:l of cell suspension to each well except the NSB wells.
8. Gently tap the sides of the plate to mix well contents. Incubate the plate for 60 minutes at room temperature (RT).
9. Place the plate on the vacuum manifold to drain the well contents. Wash twice with 100 μl/well of wash buffer (assay buffer containing 1 mM MnCl2). Drain the plate and blot on paper towels.
10. Add 10 mg/ml of 4-Nitro phenyl phosphate to Substrate buffer (0.1M glycine, 1 mM ZnCl2, 1 mM MgCl2, pH 10.5). Add 100 μl/well and incubate for exactly 30 minutes at RT.
11. To stop the reaction, add 100 μl/well of 3N NaOH.
12. Read the 96-well plate in a Molecular Devices ELISA platereader at 405 nm. Analyze data with SoftMax software.
Work on `CN1C(=O)CN(CCC(=O)O)C(=O)c2cc(NC(=O)Cc3ccc(NC(=O)Nc4ccccc4)cc3)ccc21` [BX32] yielded an IC50 of 0.959 µM. `COc1cccc(C(=O)N(CCC(=O)O)CC(=O)N(CCC(C)C)CC(=O)Nc2ccc(NC(=O)c3c[nH]c4ccccc34)cc2)c1` [AX26] showed an IC50 of 0.24 µM. In the case of `CN1C(=O)CN(CCC(=O)O)C(=O)c2cc(NC(=O)Cc3ccc(NC(=O)Nc4ccccc4Cl)cc3)ccc21` [BX34], the IC50 is reported as 0.723 µM. Molecule `Cc1ccccc1NC(=O)Nc1ccc(NC(=O)CC(CC(C)C)C(=O)N[C@@H](CC(=O)O)CN2CCOCC2)cc1` (some centres unmarked) [SX7] has an IC50 of 5.98 µM. `Cc1ccccc1NC(=O)Nc1ccc(NC(=O)CN(CCC(C)C)C(=O)CCCCC(=O)O)cc1` [CX13] gave an IC50 of 0.0525 µM. With `Cc1ccccc1NC(=O)Nc1ccc(CC(=O)Nc2cccc(NCCC(=O)O)c2)cc1` [RX15] the IC50 was 0.65 µM. In the case of `Cc1ccccc1NC(=O)Nc1ccc(CC(=O)Nc2ccc3c(c2)C(=O)N(CCC(=O)O)CC(=O)N3CC2CC2)cc1` [BX46], the IC50 is reported as 0.194 µM. Work on `Cc1ccccc1NC(=O)Nc1ccc(CC(=O)Nc2ccc3c(c2)C(=O)N(CCC(=O)O)CC(=O)N3CC2CCCO2)cc1` (centres unmarked) [BX55] yielded an IC50 of 0.12 µM. `Cc1ccccc1NC(=O)Nc1ccc(NC(=O)c2ccc3c(c2)NC(CC(=O)O)C(=O)N(C)C3)cc1` (centres unmarked) [BX36] showed an IC50 of 0.646 µM. Molecule `CSCCCN(CC(=O)Nc1ccccc1)C(=O)CN(CCC(=O)O)C(=O)c1ccccc1` [AX6] has an IC50 of 13.5 µM. `COCCN1CC(=O)N(CCC(=O)O)Cc2cc(NC(=O)Cc3ccc(NC(=O)Nc4ccccc4C)cc3)ccc21` [BX61] showed an IC50 of 0.0993 µM. For `COc1ccc(CNC(=O)C2=C(C(=O)N[C@@H](CC(=O)O)c3ccc(OC)cc3)CCC2)cc1` [MX2], the IC50 was 0.25 µM. For `COc1ccc([C@H](CC(=O)O)NC(=O)C(C)CC(=O)Nc2ccc(NC(=O)Nc3ccccc3C)cc2)cc1OC` (some centres unmarked) [SX9], the IC50 was 5.12 µM. With `C=CC[C@H](CC(=O)O)NC(=O)C(C)CC(=O)Nc1ccc(NC(=O)Nc2ccccc2C)cc1` (some centres unmarked) [SX54] the IC50 was 0.0585 µM. Work on `Cc1ccccc1NC(=O)Nc1ccc(CC(=O)Nc2cccc(CN(CCC(=O)O)C(=O)Cc3ccccc3)c2)cc1` [RX8] yielded an IC50 of 2.25 µM. In the case of `COc1ccc([C@H](CC(=O)O)NC(=O)C(C)CC(=O)Nc2ccc(NC(=O)Nc3ccccc3)cc2)cc1OC` (some centres unmarked) [SX53], the IC50 is reported as 0.065 µM. Work on `Cc1ccccc1NC(=O)Nc1ccc(CNC(=O)c2ccc3c(c2)CN(C)C(=O)C(CC(=O)O)N3)cc1` (centres unmarked) [BX18] yielded an IC50 of 4.43 µM. Molecule `CCC(C)N1C(=O)CN(CCC(=O)O)C(=O)c2cc(NC(=O)Cc3ccc(NC(=O)Nc4ccccc4C)cc3)ccc21` (centres unmarked) [BX49] has an IC50 of 0.163 µM. `COc1cccc(C(=O)N(CCC(=O)O)CC(=O)N(CCC(C)C)CC(=O)Nc2ccc(-c3nnc(-c4ccccc4)o3)cc2)c1` [AX5] was tested, and the IC50 was 0.035 µM. In the case of `Cc1ccccc1NC(=O)Nc1ccc(NC(=O)CN(CCC(=O)O)C(=O)CN(CCC(=O)O)C(=O)c2ccccc2)cc1` [AX38], the IC50 is reported as 0.06 µM. `COc1ccc([C@H](CC(=O)O)NC(=O)C(CC(=O)Nc2ccc(NC(=O)Nc3ncccc3C)cc2)CC(C)C)cc1OC` (some centres unmarked) [SX46] gave an IC50 of 0.2 µM. `COc1cccc(C(=O)N(CCC(=O)O)CC(=O)N(CCC(C)C)CC(=O)Nc2ccc(NC(=O)c3cc4ccccc4cn3)cc2)c1` [AX16] gave an IC50 of 2.84 µM. In the case of `COc1ccc([C@H](CC(=O)O)NC(=O)C(CC(=O)Nc2ccc(/C=C/c3ccccc3C)cc2)CC(C)C)cc1OC` (some centres unmarked) [SX40], the IC50 is reported as 0.335 µM. `COCCCN1CC(=O)N(CCC(=O)O)Cc2cc(NC(=O)Cc3ccc(NC(=O)Nc4ccccc4C)cc3)ccc21` [BX70] gave an IC50 of 0.0305 µM. `Cc1ccccc1NC(=O)Nc1ccc(CC(=O)Nc2ccc3c(c2)C(=O)N(C(C)CC(=O)O)CC(=O)N3C)cc1` (centres unmarked) [BX67] was tested, and the IC50 was 0.0625 µM. With `Cc1ccccc1NC(=O)Nc1ccc(CC(=O)Nc2cccc(OC/C=C/C(=O)O)c2)cc1` [RX21] the IC50 was 0.285 µM. `COc1ccc(C(CC(=O)O)NC(=O)C(CC(=O)Nc2ccc(NC(=O)Nc3ccccc3C)cc2)NS(C)(=O)=O)cc1OC` (centres unmarked) [SX47] showed an IC50 of 0.196 µM. `Cc1ccccc1NC(=O)Nc1ccc(NC(=O)CN(CCC(C)C)C(=O)CN(CCC(=O)O)C(=O)COc2ccccc2)cc1` [AX34] gave an IC50 of 0.092 µM. In the case of `COc1ccc(CCN2CC(=O)N(CCC(=O)O)Cc3cc(NC(=O)Cc4ccc(NC(=O)Nc5ccccc5C)cc4)ccc32)cc1OC` [BX68], the IC50 is reported as 0.035 µM.
